Test results taken from patent US6716428B1, “Antigenic modification of polypeptides” (The Ohio State University Research Foundation, priority 1999, dated 2004).
Read-outs that look alike come from different tables or passages of the source. Ends that are not written are not given here.

How the values were obtained:
[1] = test system: HCG; type: in vivo, rabbit
[2] = test system: HCG; test: Antibody level to HCG in immunized mice (^125I antigen, double antibody technique); type: in vivo; conditions: 52 days
[3] = test system: peptide used in the conjugate (Structure (II), (XII), (XIV), (X)); test: Antibody level to the peptide of the conjugate in immunized mice (^125I antigen, double antibody technique); type: in vivo; conditions: 52 days
[4] = test system: Ridgeway Osteogenic Sarcoma; test: Growth of Ridgeway Osteogenic Sarcoma in immunized AKR mice; type: in vivo
Excerpt: Sixty mice of the AKR strain were divided at random into a test group and a control group each comprising 30 mice. The test group were then immunized in the same manner as in Examples XXXVI and XXXVII with a vaccine comprising the same conjugate as in those Examples dissolved in Freund's Complete Adjuvant, while the control group simply received the Freund's Adjuvant. Booster Immunizations were given to each group three and seven weeks after the first immunization. […] In the mice in which the tumor survived, tumor volume measurements were made 22, 26, 29, 31, 33, 38, 40 and 43 days after innoculation with the Sarcoma. […] Nevertheless, the results in Table 27 do show a significant reduction in the rate of tumor growth in the conjugate-immunized mice.

[5] = test system: female baboons; test: Fertility rates (matings and pregnancies) of immunized female baboons; type: in vivo, baboon; conditions: female baboons
[6] = test system: Friends' Leukemia Virus; test: Survival of immunized SJL/J mice inoculated with Friends' Leukemia Virus; type: in vivo; design: concentration or dose not given beside the values
Excerpt: The mice used in this experiment were six-week old female mice of SJL/J strain. A test group and a control group, each containing approximately 20 mice were selected at random and were immunized in the same manner as in Example XXXVI above, the test animals receiving the vaccine containing the peptide/diphtheria toxoid conjugate and the control group receiving the vaccine containing only the vehicle. However, in this experiment a different immunization schedule was followed: the original immunization was followed by booster immunizations 4, 9, 20 and 29 weeks later. Six weeks after the first immunization (i.e. two weeks after the second immunization) each mouse was injected with approximately 1 million Friends' Leukemia Virus and the mice were observed daily for deaths.

CC(=O)N[C@H]1C(O)O[C@H](CO)[C@@H](O)[C@@H]1OCC(=O)N[C@@H](C)C(=O)N[C@H](CCC(=O)O)C(N)=O (stereo partly shown) [CGP 11637, NAc-nor Mur-L. Ala-D. iso Gln]
Mean Antibody Level-^125I-HCG ([1]; as E193, 4 weeks): 177.8 M/L × 10^10
Mean Antibody Level-^125I-HCG ([1]; as E193, 5 weeks): 211.9 M/L × 10^10
Mean Antibody Level-^125I-HCG ([1]; as E193, 6 weeks): 297.2 M/L × 10^10
Mean Antibody Level-^125I-HCG ([1]; as E193, 7 weeks): 381.2 M/L × 10^10
Mean Antibody Level-^125I-HCG ([1]; as E193, 8 weeks): 418.6 M/L × 10^10
Mean Antibody Level-^125I-HCG ([1]; as E193, 9 weeks): 480.0 M/L × 10^10
Mean Antibody Level-^125I-HCG ([1]; as E193, 10 weeks): 708.6 M/L × 10^10
Mean Antibody Level-^125I-HCG ([1]; as E193, 11 weeks): 628.5 M/L × 10^10
Mean Antibody Level-^125I-HCG ([1]; as E193, 12 weeks): 398.5 M/L × 10^10
HCG antibody levels compared with rabbits receiving adjuvants CGP 16940 and 12908 ([1]; in vivo): significantly greater
Mean Antibody Level-^125I-HCG ([1]; in vivo): 16.3 M/L × 10^10
Antibody level to CG [2]: 18.3 ng/mL
Antibody level to CG ([2]; C3H/He mice, same conjugate): 21.5 ng/mL
Antibody level to CG ([2]; DBA mice, same conjugate): 10.6 ng/mL
Antibody level to CG ([2]; SJL mice, same conjugate): 13.8 ng/mL
Antibody level to Structure (XII) [3]: 70.9 ng/mL
Antibody level to Structure (XII) ([3]; C3H/He mice, same conjugate): 84.0 ng/mL
Antibody level to Structure (XII) ([3]; DBA/1 mice, same conjugate): 42.5 ng/mL
Antibody level to Structure (XII) ([3]; SJL mice, same conjugate): 60.1 ng/mL

NAc-Mur-L.Ala-D.isoGln-L.Ala-Cephalin [CGP 19835]
Mean Antibody Level-^125I-HCG ([1]; as E193, 4 weeks): 286.7 M/L × 10^10
Mean Antibody Level-^125I-HCG ([1]; as E193, 5 weeks): 140.3 M/L × 10^10
Mean Antibody Level-^125I-HCG ([1]; as E193, 6 weeks): 172.0 M/L × 10^10
Mean Antibody Level-^125I-HCG ([1]; as E193, 7 weeks): 123.4 M/L × 10^10
Mean Antibody Level-^125I-HCG ([1]; as E193, 8 weeks): 138.9 M/L × 10^10
Mean Antibody Level-^125I-HCG ([1]; as E193, 9 weeks): 105.2 M/L × 10^10
Mean Antibody Level-^125I-HCG ([1]; as E193, 10 weeks): 151.3 M/L × 10^10
Mean Antibody Level-^125I-HCG ([1]; as E193, 11 weeks): 169.3 M/L × 10^10
Mean Antibody Level-^125I-HCG ([1]; as E193, 12 weeks): 107.8 M/L × 10^10
Mean Antibody Level-^125I-HCG ([1]; in vivo): 19.3 M/L × 10^10

CCCCCCCCCCCCCCCCCC(=O)OCC1OC(O)C(NC(C)=O)C(OCC(=O)NC(C)C(=O)NC(CCC(=O)O)C(N)=O)C1O (stereo not shown) [CGP 18741, NAc-ner-Mur (6-0-stearoyl)-L.Ala-D.isoGln]
Mean Antibody Level-^125I-HCG ([1]; as E193, 4 weeks): 9.8 M/L × 10^10
Mean Antibody Level-^125I-HCG ([1]; as E193, 5 weeks): 6.2 M/L × 10^10
Mean Antibody Level-^125I-HCG ([1]; as E193, 6 weeks): 8.9 M/L × 10^10
Mean Antibody Level-^125I-HCG ([1]; as E193, 7 weeks): 81.1 M/L × 10^10
Mean Antibody Level-^125I-HCG ([1]; as E193, 8 weeks): 75.4 M/L × 10^10
Mean Antibody Level-^125I-HCG ([1]; as E193, 9 weeks): 74.9 M/L × 10^10
Mean Antibody Level-^125I-HCG ([1]; as E193, 10 weeks): 121.8 M/L × 10^10
Mean Antibody Level-^125I-HCG ([1]; as E193, 11 weeks): 156.8 M/L × 10^10
Mean Antibody Level-^125I-HCG ([1]; as E193, 12 weeks): 97.6 M/L × 10^10
Mean Antibody Level-^125I-HCG ([1]; in vivo): 5.9 M/L × 10^10

NGlycol-Mur-L. a -Abu-D.isoGln [DT-1]
Mean Antibody Level-^125I-HCG ([1]; as E193, 4 weeks): 145.1 M/L × 10^10
Mean Antibody Level-^125I-HCG ([1]; as E193, 5 weeks): 184.1 M/L × 10^10
Mean Antibody Level-^125I-HCG ([1]; as E193, 6 weeks): 268.6 M/L × 10^10
Mean Antibody Level-^125I-HCG ([1]; as E193, 7 weeks): 371.5 M/L × 10^10
Mean Antibody Level-^125I-HCG ([1]; as E193, 8 weeks): 366.2 M/L × 10^10
Mean Antibody Level-^125I-HCG ([1]; as E193, 9 weeks): 654.8 M/L × 10^10
Mean Antibody Level-^125I-HCG ([1]; as E193, 10 weeks): 729.4 M/L × 10^10
Mean Antibody Level-^125I-HCG ([1]; as E193, 11 weeks): 627.5 M/L × 10^10
Mean Antibody Level-^125I-HCG ([1]; as E193, 12 weeks): 559.0 M/L × 10^10
HCG antibody levels compared with rabbits receiving adjuvants CGP 16940 and 12908 ([1]; in vivo): significantly greater
Mean Antibody Level-^125I-HCG ([1]; in vivo): 31.1 M/L × 10^10

Conjugate (TCDDPRFQDSSSSKAPPPSLPSPSRLPGPSDTPILPQ; also: conjugated to foreign carrier; listed as Homo sapiens)
Mean Tumor Volume - cm^3 ([4]; day 22 of tumor growth): 0.65 cm^3
Mean Tumor Volume - cm^3 ([4]; day 26 of tumor growth): 0.68 cm^3
Mean Tumor Volume - cm^3 ([4]; day 29 of tumor growth): 1.20 cm^3
Mean Tumor Volume - cm^3 ([4]; day 31 of tumor growth): 2.24 cm^3
Mean Tumor Volume - cm^3 ([4]; day 33 of tumor growth): 3.04 cm^3
Mean Tumor Volume - cm^3 ([4]; day 36 of tumor growth): 3.14 cm^3
Mean Tumor Volume - cm^3 ([4]; day 38 of tumor growth): 4.40 cm^3
Mean Tumor Volume - cm^3 ([4]; day 40 of tumor growth): 5.54 cm^3
Mean Tumor Volume - cm^3 ([4]; day 43 of tumor growth): 5.00 cm^3
Fertility Rate (%) ([5]; mating cycle 1): 0%
No. Pregnant ([5]; mating cycle 1): 0
Fertility Rate (%) ([5]; mating cycle 2): 6.7%
No. Pregnant ([5]; mating cycle 2): 1
Fertility Rate (%) ([5]; mating cycle 3): 7.1%
No. Pregnant ([5]; mating cycle 3): 1
Fertility Rate (%) ([5]; totals of mating cycles 1-3): 4.6%
No. Pregnant ([5]; totals of mating cycles 1-3): 2
Survival Rate - % ([6]; 0 days after inoculation with Friends' Leukemia Virus): 100.0%
Survival Rate - % ([6]; 22 days after inoculation): 100.0%
Survival Rate - % ([6]; 29 days after inoculation): 100.0%
Survival Rate - % ([6]; 98 days after inoculation (day of booster immunization)): 100.0%
Survival Rate - % ([6]; 160 days after inoculation): 100.0%
Survival Rate - % ([6]; 163 days after inoculation (day of booster immunization)): 100.0%
Survival Rate - % ([6]; 166 days after inoculation): 100.0%
Survival Rate - % ([6]; 175 days after inoculation): 100.0%
Survival Rate - % ([6]; 180 days after inoculation): 100.0%
